In ChEMBL document CHEMBL5634101, “Discovery of NLRP3 inhibitors using machine learning: Identification of a hit compound to treat NLRP3 activation-driven diseases” (Eur J Med Chem, 2023):
Active and inactive are the calls of the source.

Assays:
[1] = target: NACHT, LRR and PYD domains-containing protein 3 (Mus musculus) (UniProt Q8R4B8); experiment: Inhibition of NLRP3 inflammasome assembly in C57 mouse BMDM cells assessed as effect on NEK7 binding at 2.5 to 10 uM preincubated with LPS for 3 hrs followed by compound addition for 30 mins prior to nigericin addition and measured after 30 mins by immunoprecipitation; assay type: cell-based; details: dose 2.5-10 µM, time 1.0 hrs
Chain of NACHT, LRR and PYD domains-containing protein 3 (Mus musculus) (Q8R4B8 whole entry, the tested form may be a part): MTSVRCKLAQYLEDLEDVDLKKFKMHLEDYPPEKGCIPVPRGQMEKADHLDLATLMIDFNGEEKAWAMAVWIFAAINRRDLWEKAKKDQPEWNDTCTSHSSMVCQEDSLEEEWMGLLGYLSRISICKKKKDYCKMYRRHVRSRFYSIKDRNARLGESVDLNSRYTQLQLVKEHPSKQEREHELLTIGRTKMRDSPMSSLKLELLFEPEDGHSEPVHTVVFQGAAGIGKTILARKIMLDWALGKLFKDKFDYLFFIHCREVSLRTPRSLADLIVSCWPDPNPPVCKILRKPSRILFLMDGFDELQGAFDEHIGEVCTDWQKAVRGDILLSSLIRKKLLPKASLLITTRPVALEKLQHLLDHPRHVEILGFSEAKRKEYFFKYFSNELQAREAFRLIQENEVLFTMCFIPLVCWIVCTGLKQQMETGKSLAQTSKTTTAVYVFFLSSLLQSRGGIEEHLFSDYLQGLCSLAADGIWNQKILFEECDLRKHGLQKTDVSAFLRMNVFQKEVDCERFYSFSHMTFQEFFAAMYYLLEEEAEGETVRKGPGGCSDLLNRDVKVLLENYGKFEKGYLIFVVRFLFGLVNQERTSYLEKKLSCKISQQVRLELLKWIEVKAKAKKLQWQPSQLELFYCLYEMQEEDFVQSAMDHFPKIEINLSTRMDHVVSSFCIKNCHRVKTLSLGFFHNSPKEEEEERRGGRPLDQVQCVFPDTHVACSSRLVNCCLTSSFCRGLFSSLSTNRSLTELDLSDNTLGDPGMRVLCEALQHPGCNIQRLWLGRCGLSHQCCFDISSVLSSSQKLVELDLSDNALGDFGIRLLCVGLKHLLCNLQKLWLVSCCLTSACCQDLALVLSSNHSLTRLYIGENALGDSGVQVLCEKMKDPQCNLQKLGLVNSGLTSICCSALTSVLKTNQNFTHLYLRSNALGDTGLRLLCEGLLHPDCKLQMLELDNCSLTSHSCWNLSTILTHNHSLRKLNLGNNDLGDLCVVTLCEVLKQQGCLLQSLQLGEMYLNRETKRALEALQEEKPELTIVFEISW

[2] = target: NACHT, LRR and PYD domains-containing protein 3 (Mus musculus) (UniProt Q8R4B8); experiment: Inhibition of NLRP3 inflammasome activation in C57 mouse BMDM cells assessed as reduction in IL-1beta secretion at 5 uM preincubated with LPS for 3 hrs followed by compound addition for 30 mins prior to ATP addition and measured after 30 mins by Western blot analysis; assay type: cell-based; details: time 1.0 hrs
[3] = target: NACHT, LRR and PYD domains-containing protein 3 (Mus musculus) (UniProt Q8R4B8); experiment: Inhibition of NLRP3 inflammasome activation in C57 mouse BMDM cells assessed as reduction in IL-1beta secretion at 5 uM preincubated with LPS for 3 hrs followed by compound addition for 30 mins prior to nigericin addition and measured after 30 mins by Western blot analysis; assay type: cell-based; details: time 1.0 hrs
[4] = target: T1, Interferon-inducible protein AIM2 (Mus musculus) (UniProt Q91VJ1); experiment: Inhibition of AIM2 inflammasome activation in C57 mouse BMDM cells assessed as reduction in IL-1beta secretion at 5 uM preincubated with LPS for 3 hrs followed by poly(dA:dT) stimulation for 4 hrs by Western blot analysis; assay type: cell-based
T1 sequence (whole entry): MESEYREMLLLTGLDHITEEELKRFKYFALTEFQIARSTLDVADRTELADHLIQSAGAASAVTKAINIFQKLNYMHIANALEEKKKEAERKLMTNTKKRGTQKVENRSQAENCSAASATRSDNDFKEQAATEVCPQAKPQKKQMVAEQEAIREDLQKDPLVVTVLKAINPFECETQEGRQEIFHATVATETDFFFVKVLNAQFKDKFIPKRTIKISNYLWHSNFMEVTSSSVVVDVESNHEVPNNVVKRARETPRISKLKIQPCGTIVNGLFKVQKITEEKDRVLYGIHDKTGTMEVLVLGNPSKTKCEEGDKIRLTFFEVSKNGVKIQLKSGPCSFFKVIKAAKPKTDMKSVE

L02 = experiment: Cytotoxicity against human L02 cells assessed as reduction in cell viability upto 50 uM incubated for 24 hrs by CCK8 assay; assay type: toxicity, cell-based; details: l02, 24 h
[5] = target: NACHT, LRR and PYD domains-containing protein 3 (Mus musculus) (UniProt Q8R4B8); experiment: Inhibition of NLRP3 inflammasome assembly in C57 mouse BMDM cells assessed as reduction in ASC monomer at 2.5 to 10 uM preincubated with LPS for 3 hrs followed by compound addition for 30 mins prior to nigericin addition and measured after 30 mins by blotting analysis; assay type: cell-based; details: dose 2.5-10 µM, time 1.0 hrs
[6] = target: NACHT, LRR and PYD domains-containing protein 3 (Mus musculus) (UniProt Q8R4B8); experiment: Inhibition of NLRP3 inflammasome activation in C57 mouse BMDM cells assessed as reduction in caspase-1 maturation at 5 uM preincubated with LPS for 3 hrs followed by compound addition for 30 mins prior to MSU addition and measured after 4 hrs by Western blot analysis; assay type: cell-based; details: time 4.5 hrs
BMDM [7] = experiment: Effect on TNF-alpha secretion in LPS/Nigericin induced C57 mouse BMDM cells at 1.25 to 10 uM preincubated with LPS for 3 hrs followed by compound addition for 30 mins prior to nigericin addition and measured after 30 mins by ELISA; assay type: functional, cell-based; details: dose 1.25-10 µM, time 1.0 hrs
HEK-293T = experiment: Cytotoxicity against HEK293T cells assessed as reduction in cell viability upto 50 uM incubated for 24 hrs by CCK8 assay; assay type: toxicity, cell-based; details: human
[8] = target: T2, NACHT, LRR and PYD domains-containing protein 3 (Homo sapiens, UniProt Q96P20); experiment: Inhibition of NLRP3 inflammasome activation in PMA-differentiated human THP-1 cells assessed as reduction in IL-1beta secretion pre-stimulated with PMA for 24 hrs followed by compound addition and measured after 30 mins by ELISA; assay type: cell-based
T2 sequence (Q96P20 whole entry, the tested form may be a part): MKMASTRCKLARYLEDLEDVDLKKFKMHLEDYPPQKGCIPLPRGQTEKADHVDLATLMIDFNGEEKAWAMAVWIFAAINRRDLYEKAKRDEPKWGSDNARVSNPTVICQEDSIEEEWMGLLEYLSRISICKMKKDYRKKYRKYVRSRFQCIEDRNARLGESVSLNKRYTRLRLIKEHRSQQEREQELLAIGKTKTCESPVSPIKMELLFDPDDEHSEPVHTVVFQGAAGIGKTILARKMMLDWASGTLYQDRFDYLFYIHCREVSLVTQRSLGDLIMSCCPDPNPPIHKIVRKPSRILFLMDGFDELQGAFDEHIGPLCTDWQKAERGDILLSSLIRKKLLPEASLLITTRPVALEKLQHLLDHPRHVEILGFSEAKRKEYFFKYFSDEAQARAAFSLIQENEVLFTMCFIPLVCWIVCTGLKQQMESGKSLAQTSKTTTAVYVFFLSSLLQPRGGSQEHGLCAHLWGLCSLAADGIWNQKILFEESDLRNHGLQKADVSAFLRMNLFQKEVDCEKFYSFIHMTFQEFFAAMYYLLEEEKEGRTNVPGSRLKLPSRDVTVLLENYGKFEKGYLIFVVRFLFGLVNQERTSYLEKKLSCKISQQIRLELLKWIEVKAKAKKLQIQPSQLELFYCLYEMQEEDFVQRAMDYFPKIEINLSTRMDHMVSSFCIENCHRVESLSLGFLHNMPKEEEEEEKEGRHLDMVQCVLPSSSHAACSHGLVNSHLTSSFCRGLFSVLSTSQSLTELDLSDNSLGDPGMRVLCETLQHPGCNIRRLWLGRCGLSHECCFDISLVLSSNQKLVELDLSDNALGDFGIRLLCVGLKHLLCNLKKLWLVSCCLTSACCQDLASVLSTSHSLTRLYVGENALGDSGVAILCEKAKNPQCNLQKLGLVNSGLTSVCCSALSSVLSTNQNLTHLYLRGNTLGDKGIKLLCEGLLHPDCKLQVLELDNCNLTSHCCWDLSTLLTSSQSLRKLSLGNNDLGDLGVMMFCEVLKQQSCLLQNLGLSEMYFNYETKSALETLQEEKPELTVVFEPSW

[9] = target: NACHT, LRR and PYD domains-containing protein 3 (Mus musculus) (UniProt Q8R4B8); experiment: Inhibition of NLRP3 inflammasome activation in C57 mouse BMDM cells assessed as reduction in IL-1beta secretion at 5 uM preincubated with LPS for 3 hrs followed by compound addition for 30 mins prior to MSU addition and measured after 4 hrs by Western blot analysis; assay type: cell-based; details: time 4.5 hrs
[10] = Stability in human liver microsomes assessed as intrinsic clearance at 1.5 uM measured upto 45 mins in presence of NADPH by LC-MS/MS analysis; assay type: ADME, Microsome; details: read-out: CLH
Mus musculus = experiment: Analgesic activity in MSU-induced C57 mouse model of gouty arthritis assessed as increase in pain threshold at 10 to 30 mg/kg, ip preadministered with compound for 3 days followed by MSU injection and measured after 24 hrs by von frey test; assay type: functional, organism-based; details: dose 10-30 mg/kg, time 4.0 day
[11] = target: NACHT, LRR and PYD domains-containing protein 3 (Mus musculus) (UniProt Q8R4B8); experiment: (§1) Inhibition of NLRP3 inflammasome activation in LPS/Nigericin induced C57 mouse BMDM cells assessed as reduction in pro-IL-1beta expression in cell supernatant at 2.5 to 10 uM preincubated with LPS for 3 hrs followed by compound addition for 30 mins prior to nigericin addition and measured after 30 mins by Western blot analysis; assay type: cell-based; details: dose 2.5-10 µM, time 1.0 hrs
BMDM [12] = experiment: Cytotoxicity against C57 mouse BMDM cells assessed as reduction in cell viability upto 50 uM incubated for 24 hrs by CCK8 assay; assay type: toxicity, cell-based
[13] = target: NACHT, LRR and PYD domains-containing protein 3 (Mus musculus) (UniProt Q8R4B8); experiment: as §1, with “active caspase-1” for “pro-IL-1beta expression”; assay type: cell-based; details: dose 2.5-10 µM, time 1.0 hrs
[14] = target: NACHT, LRR and PYD domains-containing protein 3 (Mus musculus) (UniProt Q8R4B8); experiment: as §1, with “NEK7” for “pro-IL-1beta”; assay type: cell-based; details: dose 2.5-10 µM, time 1.0 hrs
[15] = target: NACHT, LRR and PYD domains-containing protein 3 (Mus musculus) (UniProt Q8R4B8); experiment: Binding affinity to NLRP3 in mouse J774.A1 cells assessed as reduction in NLRP3 degradation incubated for 1 hrs at 48 to 81 degreeC by CETSA based Western blot analysis; assay type: cell-based
[16] = target: T2, NACHT, LRR and PYD domains-containing protein 3; experiment: Binding affinity to CM5 chip immobilized NLRP3 (unknown origin) assessed as dissociation constant by SPR analysis
[17] = target: NACHT, LRR and PYD domains-containing protein 3 (Mus musculus) (UniProt Q8R4B8); experiment: as §1, with “pro-caspase-1(p45)” for “pro-IL-1beta”; assay type: cell-based; details: dose 2.5-10 µM, time 1.0 hrs

inhibition [1]: Active | inhibition [2]: Active | inhibition [3]: Active | inhibition [4]: inactive | inhibition [5]: Active | inhibition [6]: Active | IC50 [8]: 2.3 µM | inhibition [9]: Active | CLint scaled at 1.5 µM [10]: 11.2 mL/min/kg | inhibition [11]: inactive | inhibition [13]: Active | inhibition [14]: inactive | Activity [15]: Active | Kd [16]: 7.2 µM | inhibition [17]: inactive
SMILES: COc1ccc(N2C(=O)/C(=C\c3ccccc3C(F)(F)F)SC2=S)cc1
Activity (L02): Non-Toxic | Activity (BMDM [7]): inactive | Activity (HEK-293T): Non-Toxic | Activity (Mus musculus): Active | Activity (BMDM [12]): Non-Toxic
